Data: patent US20190142835A1, “INHIBITION OF AUTOPHAGY USING PHOSPHOLIPASE A2 INHIBITORS” (OREGON HEALTH & SCIENCE UNIVERSITY, priority 2017, published 2019)

How the values were obtained:
ACHN cells [1] = assay: Lipid droplet staining (Bodipy 493/503), ACHN; type: cell-based, human; settings: 24 hrs; p<0.001 vs control
Method: (§1) Cells were grown on coverslips then treated with drug for 24 hours. Cells were fixed in 4% paraformaldehyde for 15 min, rinsed with PBS. Cells were washed with a 1% saponin solution for 15 min at room temperature then washed several times in PBS to remove detergent. Cells were then incubated in Bodipy (ThermoFisher #D3922) at a final concentration of 1 uM for 10 min. Bodipy was removed and slides were rinsed with PBS then air dried and mounted on slides using Dako mounting media with Dapi.

SN12C xenografts = assay: SN12C xenograft study; type: in vivo; settings: SN12C; CYT387 50 mg/kg/day or MK2206 60 mg/kg/day oral gavage
Method: (§2) 6-week old mice were utilized for human renal cell carcinoma xenografts. For both ACHN and SN12C cell lines 2×10^6 cells were diluted in 50 μl of PBS and 50 μl of Matrigel (BD Biosciences) and were injected subcutaneously into the right and left flank of each mouse. Tumors were monitored until they reached an average size of 50-80 mm3 (approximately 2 weeks), at which point treatments were begun. […] MK2206 (60 mg/kg/day) were administered by oral gavage 2-3 day/week. […] Tumors and mouse weights were measured twice weekly. At least 6-8 mice per treatment group were included. All mice were euthanized using CO2 inhalation followed by cervical dislocation per institutional guidelines at Oregon Health and Science University. Experiments were approved by the Institutional Animal Care and Use Committee at OHSU.
(§3) Immunostaining was performed following deparaffinization and rehydration of slides. Antigen retrieval was performed in a pressure cooker using citrate buffer (pH 6.0) for 4 min. Nonspecific binding was blocked using Vector mouse IgG blocking serum 30 min at room temperature. Samples were incubated at room temperature with rabbit monoclonal antibodies pS6 (CST #5364) cleaved caspase 3 (CST#9661), and Ki67 (Dako#M7240).
Slides were developed with Vector Immpress rabbit IgG (#MP7401) and Vector Immpress mouse IgG (#MP7400) for 30 min at room temperature. Chromogenic detection was performed using Vector Immpact DAB (#SK4105) for 3 min. Slides were counterstained with hematoxylin. A 3DHistech MIDI Scanner (Perkin Elmer) was used to capture whole slide digital images with a 20× objective. […]
Mouse tumor size was analyzed by 2-way ANOVA with time and drug as factors, using GraphPad Prism. Mouse weight during treatment was analyzed by repeated measures 2-way ANOVA, with time and drug as factors. […] Immunohistochemistry: P-values were calculated using one-way ANOVA, with Bonferroni's multiple comparison test. * denotes P<0.05, ** denotes P<0.01, and *** denotes P<0.001 throughout this disclosure. […]

ACHN cells [2] = assay: Cell viability (CellTiter-Glo), ACHN; type: cell-based, human; settings: ACHN, 3 days
Method: (§4) Cell viability assays were performed by plating 2000 cells/well in 96-well plates in triplicate and treating the following day with the indicated agent. The experiment was continued for 3 days and then cell viability was determined using CellTiter-Glo assay kit (Promega).
The assay was measured using a luminometer. […] Experimental results are the average of at least three independent experiments.

ACHN xenografts = assay: ACHN xenograft study; type: in vivo
Method: as §2, §3
Slides were developed with Vector Immpress rabbit IgG (#MP7401) and Vector Immpress mouse IgG (#MP7400) for 30 min at room temperature. Chromogenic detection was performed using Vector Immpact DAB (#SK4105) for 3 min. Slides were counterstained with hematoxylin. A 3DHistech MIDI Scanner (Perkin Elmer) was used to capture whole slide digital images with a 20× objective. Images were converted to into MRXS files and computer graphic analysis was completed using inForm 1.4.0 Advanced Image Analysis Software (Perkin Elmer).
Mouse tumor size was analyzed by 2-way ANOVA with time and drug as factors, using GraphPad Prism. Mouse weight during treatment was analyzed by repeated measures 2-way ANOVA, with time and drug as factors. A P value less than 0.05 was considered statistically significant. Immunohistochemistry: P-values were calculated using one-way ANOVA, with Bonferroni's multiple comparison test. * denotes P<0.05, ** denotes P<0.01, and *** denotes P<0.001 throughout this disclosure. Metabolite fold-changes were computed and visualized in Python script, using the openpyxl package (for importing Excel files) and the matplotlib package (for visualizing fold changes).

[3] = tested on: PI3K, mTORC1 and mTORC2 signaling; assay: Western blotting of PI3K-AKT-mTOR signaling; type: cell-based, human; settings: added to CYT387
Method: Cells were plated in 6 well dishes and treated the following day with the indicated agents. Treatments were for 24 hours, after which cells were washed with ice cold PBS and lysed with RIPA buffer (Sigma). Phosphatase inhibitor cocktail set II and protease inhibitor cocktail set III (EMD Millipore) were added at the time of lysis. Lysates were centrifuged at 15,000 g×10 min at 4 degrees C. Protein concentrations were calculated based on a BCA assay (Thermo Scientific) generated standard curve. Proteins were resolved using the NuPAGE Novex Mini Gel system on 4% to 12% Bis-Tris Gels (Invitrogen). For western blotting, equal amounts of cell lysates (15-20 μg of protein) were resolved with SDSPAGE, and transferred to membranes. The membrane was probed with primary antibodies, washed, and then incubated with corresponding fluorescent secondary antibodies and washed. The fluorescent signal was captured using LI-COR (Lincoln, Nebr.) Odyssey Imaging System, and fluorescent intensity was quantified using the Odyssey software where indicated. The following antibodies were used for Western blots: p-S6 (S240/244), S6, LC3B, p-Akt(S473), p-Akt(T308), Akt, cleaved caspase3 (Cell Signaling Technologies). p-Stat3 (Y705), Stat3 and β-actin (AC15) (Abcam). Ki67 (Dako) and cleaved caspase3 (Cell Signaling Technologies) were used for immunohistochemistry. […] BX795 and GDC0941 were purchased from Sigma.

glycolysis = assay: Glucose uptake and lactate excretion as readouts for glycolysis; type: cell-based, human
Text: The PI3K-AKT-mTOR pathway regulates multiple steps in glucose uptake and metabolism.

SN12C cells [4] = assay: Apoptosis (Caspase 3/7-Glo), SN12C; type: cell-based, human; settings: 72 h
Method: (§5) Apoptosis was determined using Caspase 3/7-Glo assay kit (Promega) following the manufacturer's instructions. Briefly, 2000 cells per well were plated in 96 well plates and cultured for 72 h. […] Caspase 3/7 activity was measured using a luminometer. Luminescence values were normalized by cell numbers.

[5] = tested on: Atg5+/+ murine embryonic fibroblasts; assay: Lipid droplet number in Atg5+/+ MEFs; type: cell-based, mouse; settings: 24 hr
Method: as §1

ACHN cells [6] = assay: Cellular respiration (XF96 Seahorse, ECAR and OCR); type: cell-based, human; settings: XF-96 Extracellular Flux Analyzer
Method: Oxygen consumption and extracellular acidification rates were carried out in a XF96 Seahorse Analyzer (Seahorse Bioscience, Billerica, Mass., USA). Cells were plated in the wells of 96-well plates (8×10^3 cells/well; XF96 plates, Seahorse Bioscience, North Billerica, Mass.) and incubated at 37° C. overnight. The next day, cells were treated with indicated drugs for 24 hours and then the medium was changed to XF Assay Medium and loaded with glucose, oligomycin, and 2-DG, respectively, as manufacture's recommendation.

[7] = tested on: Atg5−/− murine embryonic fibroblasts; assay: Lipid droplet number in Atg5−/− MEFs; type: cell-based, mouse; settings: ATG5 deficient, 24 hr
Method: as §1

ACHN cells [8] = assay: Redox homeostasis (p-AMPK, NADPH, GSSG/GSH, ROS); type: cell-based, human; settings: 2 μM CYT387, 10 μM MK2206, 24 hr
Method: ROS levels were measured with Cellrox Deep Red (Molecular Probes). Cell were plated in a 96 well clear bottom with black sides cell culture plate. […] The complete media+drug was removed after 24 hours and replaced with 5 μM of Cellrox Deep Red in media. Cells were incubated for 30 min at 370 C then washed with PBS. Fluorescence signal was detected using a Bioteck Cytation 5 plate reader. Data was analyzed using Prism software.

SN12C cells [9] = assay: Cell viability (CellTiter-Glo), SN12C; type: cell-based, human; settings: 3 days
Method: as §4, with “(Promega). The assay was measured using a luminometer. […] Experimental results are the average of at least three independent experiments.” for “(Promega).”

ACHN cells [10] = assay: Apoptosis (Caspase 3/7-Glo), ACHN; type: cell-based, human; settings: ACHN, 72 h
Method: as §5

For `NC1(c2ccc(-c3nc4ccn5c(=O)[nH]nc5c4cc3-c3ccccc3)cc2)CCC1` [MK2206], the “number of lipid droplets” value (ACHN cells [1]) was “increase in the number of lipid droplets”, the “size of lipid droplets” value (ACHN cells [1]) was “increase in the size of lipid droplets” and the “antitumor effect of single agent” value (SN12C xenografts) was “exhibited antitumor effect”. The “proliferation (cell viability)” value (ACHN cells [2]) was “some anti-proliferative effects”, the “antitumor effect of single agent” value (ACHN xenografts; ACHN, CYT387 50 mg/kg/day or MK2206 60 mg/kg/day oral gavage) was “exhibited antitumor effect” and the “number of adipophilin-positive LDs in tumors” value (ACHN xenografts; treatment day 40, ACHN xenograft tumors, CYT387<MK2206<CYT387+MK2206, p=0.0046) was “significantly and incrementally increased”. The “effect on mTORC1 activity in cells treated with CYT387” value [3] was “additive inhibitory effect on mTORC1 activity”, the “lactate/glucose ratio in extracellular media” value (glycolysis; Control: 1.51) was 0.81 and the glucose uptake (glycolysis; in vitro, 18FDG) was “significantly decreased glucose uptake”. For the same molecule, the lactate production (glycolysis; in vitro, culture media) was “reduced lactate production”, the “apoptosis (cleaved-caspase 3/7)” value (SN12C cells [4]) was “little or no effect on apoptosis” and the LD numbers [5] was “significantly increase LD numbers”. For the same molecule, the ECAR (ACHN cells [6]) was “significantly reduced the ECAR”, the lipid droplets [7] was “no increase in lipid droplets” and the GSSG/GSH ratios (ACHN cells [8]) was “maintains GSSG/GSH ratios”. The NADPH levels (ACHN cells [8]) was “increases NADPH levels”, the ROS (ACHN cells [8]) was “mitigates ROS” and the p-AMPK (ACHN cells [8]) was “activates p-AMPK”. The “proliferation (cell viability)” value (SN12C cells [9]) was “some anti-proliferative effects” and the “apoptosis (cleaved-caspase 3/7)” value (ACHN cells [10]) was “little or no effect on apoptosis”.
